Test results as given in ChEMBL document CHEMBL1201862, “PubChem BioAssay data set” (2004).
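Exposure lasted 48 hours, with cells grown in 96-well plates and compounds tested at five concentrations. GI50 marks 50% less growth.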 Active and inactive are the calls of the source. Rule as the data show it: active = GI50 up to about 1.1 µM and inactive = higher.

Key:
Assay in all cases: inhibition of tumour cell growth, NCI panel, 48 h
786-0 = tested on: 786-0
A498 = tested on: A498
A549 = tested on: A549
ACHN = tested on: ACHN
CAKI-1 = tested on: CAKI-1
CCRF-CEM = tested on: CCRF-CEM
COLO 205 = tested on: COLO 205
DU-145 = tested on: DU-145
EKVX = tested on: EKVX
HCC 2998 = tested on: HCC 2998
HCT-116 = tested on: HCT-116
HCT-15 = tested on: HCT-15
HOP-62 = tested on: HOP-62
HOP-92 = tested on: HOP-92
Hs-578T = tested on: Hs-578T
IGROV-1 = tested on: IGROV-1
K562 = tested on: K562
KM12 = tested on: KM12
LOX IMVI = tested on: LOX IMVI
M14 = tested on: M14
MCF7 = tested on: MCF7
MDA-MB-435 = tested on: MDA-MB-435
MDA-N = tested on: MDA-N
MOLT-4 = tested on: MOLT-4
NCI-H23 = tested on: NCI-H23
NCI-H460 = tested on: NCI-H460
NCI/ADR-RES = tested on: NCI/ADR-RES
OVCAR-3 = tested on: OVCAR-3
OVCAR-4 = tested on: OVCAR-4
OVCAR-5 = tested on: OVCAR-5
PC-3 = tested on: PC-3
RPMI-8226 = tested on: RPMI-8226
RXF 393 = tested on: RXF 393
SF-268 = tested on: SF-268
SF-295 = tested on: SF-295
SK-MEL-28 = tested on: SK-MEL-28
SK-MEL-5 = tested on: SK-MEL-5
SN12C = tested on: SN12C
SNB-19 = tested on: SNB-19
SR = tested on: SR
SW-620 = tested on: SW-620
U-251 = tested on: U-251
UACC-257 = tested on: UACC-257
UACC-62 = tested on: UACC-62
UO-31 = tested on: UO-31
Malme-3M = tested on: Malme-3M
SK-MEL-2 = tested on: SK-MEL-2
SK-OV-3 = tested on: SK-OV-3
SNB-75 = tested on: SNB-75
T47D = tested on: T47D
HL-60 = tested on: HL-60
HT-29 = tested on: HT-29
MDA-MB-231 = tested on: MDA-MB-231
NCI-H226 = tested on: NCI-H226
NCI-H522 = tested on: NCI-H522
OVCAR-8 = tested on: OVCAR-8
SF-539 = tested on: SF-539
TK-10 = tested on: TK-10

## Cc1cccc(Nc2cn(CCOc3ccccc3)c(=O)[nH]c2=O)c1
786-0
  GI50: 34.2 µM (inactive)
A498
  GI50: > 100 µM (inactive)
A549
  GI50: 22.7 µM (inactive)
ACHN
  GI50: 33.2 µM (inactive)
CAKI-1
  GI50: 41.2 µM (inactive)
CCRF-CEM
  GI50: 52.6 µM (inactive)
COLO 205
  GI50: 18.8 µM (inactive)
DU-145
  GI50: 28.5 µM (inactive)
EKVX
  GI50: 11.3 µM (inactive)
HCC 2998
  GI50: 24.8 µM (inactive)
HCT-116
  GI50: 27.5 µM (inactive)
HCT-15
  GI50: 49.9 µM
HOP-62
  GI50: 29.8 µM (inactive)
HOP-92
  GI50: 35.6 µM (inactive)
Hs-578T
  GI50: 6.41 µM (inactive)
IGROV-1
  GI50: 16.7 µM (inactive)
K562
  GI50: 58.6 µM (inactive)
KM12
  GI50: 31.3 µM (inactive)
LOX IMVI
  GI50: 11.9 µM (inactive)
M14
  GI50: 47.2 µM (inactive)
MCF7
  GI50: 35.9 µM (inactive)
MDA-MB-435
  GI50: 29.5 µM (inactive)
MDA-N
  GI50: 32.4 µM (inactive)
MOLT-4
  GI50: 36.9 µM (inactive)
NCI-H23
  GI50: 31 µM (inactive)
NCI-H460
  GI50: 32.7 µM (inactive)
NCI/ADR-RES
  GI50: 1.73 µM (inactive)
OVCAR-3
  GI50: 18.7 µM (inactive)
OVCAR-4
  GI50: 69.5 µM (inactive)
OVCAR-5
  GI50: 19.4 µM (inactive)
PC-3
  GI50: 23.4 µM (inactive)
RPMI-8226
  GI50: 34 µM (inactive)
RXF 393
  GI50: 34.8 µM (inactive)
SF-268
  GI50: 30 µM (inactive)
SF-295
  GI50: 49.9 µM (inactive)
SK-MEL-28
  GI50: 29.5 µM (inactive)
SK-MEL-5
  GI50: 25.8 µM (inactive)
SN12C
  GI50: 24.6 µM (inactive)
SNB-19
  GI50: 97.1 µM (inactive)
SR
  GI50: > 100 µM (inactive)
SW-620
  GI50: > 100 µM (inactive)
U-251
  GI50: 33.7 µM (inactive)
UACC-257
  GI50: 43.7 µM (inactive)
UACC-62
  GI50: 46.6 µM (inactive)
UO-31
  GI50: 21.4 µM (inactive)

## O=P(O)(Cc1ccccc1)OCC1(O)OCC(O)C(O)C1O (stereo not drawn)
786-0
  GI50: > 10 µM (inactive)
A549
  GI50: > 10 µM (inactive)
ACHN
  GI50: > 10 µM (inactive)
CAKI-1
  GI50: > 10 µM (inactive)
COLO 205
  GI50: > 10 µM (inactive)
HOP-62
  GI50: > 10 µM (inactive)
IGROV-1
  GI50: > 10 µM (inactive)
K562
  GI50: > 10 µM (inactive)
M14
  GI50: > 10 µM (inactive)
MCF7
  GI50: > 10 µM (inactive)
MDA-MB-435
  GI50: > 10 µM (inactive)
Malme-3M
  GI50: > 10 µM (inactive)
NCI-H23
  GI50: > 10 µM (inactive)
NCI-H460
  GI50: > 10 µM (inactive)
NCI/ADR-RES
  GI50: > 10 µM (inactive)
OVCAR-4
  GI50: > 10 µM (inactive)
OVCAR-5
  GI50: > 10 µM (inactive)
RPMI-8226
  GI50: > 10 µM (inactive)
RXF 393
  GI50: > 10 µM (inactive)
SF-268
  GI50: > 10 µM (inactive)
SK-MEL-28
  GI50: > 10 µM (inactive)
SK-MEL-2
  GI50: > 10 µM (inactive)
SK-MEL-5
  GI50: > 10 µM (inactive)
SK-OV-3
  GI50: > 10 µM (inactive)
SNB-75
  GI50: > 10 µM (inactive)
SR
  GI50: > 10 µM (inactive)
SW-620
  GI50: > 10 µM (inactive)
T47D
  GI50: > 10 µM (inactive)
U-251
  GI50: > 10 µM (inactive)
UACC-62
  GI50: > 10 µM (inactive)

## CC(C)C1SCc2nc3ccccc3n21 (stereo not drawn)
786-0
  GI50: 84.9 µM (inactive)
A498
  GI50: 30.1 µM (inactive)
A549
  GI50: 37.9 µM (inactive)
ACHN
  GI50: 19.7 µM (inactive)
CAKI-1
  GI50: 40.1 µM (inactive)
CCRF-CEM
  GI50: 34.8 µM (inactive)
COLO 205
  GI50: 12.7 µM (inactive)
DU-145
  GI50: 91.4 µM (inactive)
EKVX
  GI50: 32.4 µM (inactive)
HCC 2998
  GI50: 78 µM (inactive)
HCT-116
  GI50: 30.6 µM (inactive)
HCT-15
  GI50: 50.1 µM
HL-60
  GI50: 43 µM (inactive)
HOP-62
  GI50: 50.8 µM (inactive)
HOP-92
  GI50: 16.3 µM (inactive)
HT-29
  GI50: 40.4 µM (inactive)
Hs-578T
  GI50: 36.1 µM (inactive)
IGROV-1
  GI50: 24.4 µM (inactive)
K562
  GI50: 34.5 µM (inactive)
KM12
  GI50: 17.8 µM (inactive)
LOX IMVI
  GI50: 35.4 µM (inactive)
M14
  GI50: 33.4 µM (inactive)
MCF7
  GI50: 13.9 µM (inactive)
MDA-MB-231
  GI50: 24.2 µM (inactive)
MDA-MB-435
  GI50: 28.8 µM (inactive)
MDA-N
  GI50: 38.9 µM (inactive)
MOLT-4
  GI50: 20 µM (inactive)
Malme-3M
  GI50: 37.2 µM (inactive)
NCI-H226
  GI50: < 0.01 µM (active)
NCI-H23
  GI50: 25.9 µM (inactive)
NCI-H460
  GI50: 46.3 µM (inactive)
NCI-H522
  GI50: 71.3 µM (inactive)
NCI/ADR-RES
  GI50: 29.4 µM (inactive)
OVCAR-3
  GI50: 39.8 µM (inactive)
OVCAR-4
  GI50: 27.4 µM (inactive)
OVCAR-5
  GI50: 77.3 µM (inactive)
OVCAR-8
  GI50: 40.2 µM (inactive)
PC-3
  GI50: 13.2 µM (inactive)
RPMI-8226
  GI50: 31.5 µM (inactive)
RXF 393
  GI50: 39.6 µM (inactive)
SF-268
  GI50: 64.3 µM (inactive)
SF-295
  GI50: 30.5 µM (inactive)
SF-539
  GI50: 38.2 µM (inactive)
SK-MEL-28
  GI50: 68.1 µM (inactive)
SK-MEL-2
  GI50: 29.8 µM (inactive)
SK-MEL-5
  GI50: 16.4 µM (inactive)
SK-OV-3
  GI50: > 100 µM (inactive)
SN12C
  GI50: 21.8 µM (inactive)
SNB-19
  GI50: 51.8 µM (inactive)
SW-620
  GI50: 65.8 µM (inactive)
T47D
  GI50: 58.1 µM (inactive)
TK-10
  GI50: 38.5 µM (inactive)
U-251
  GI50: 51.4 µM (inactive)
UACC-257
  GI50: 32.8 µM (inactive)
UACC-62
  GI50: 35.1 µM (inactive)
UO-31
  GI50: 44.8 µM (inactive)

## CC(C)=C=CP(=O)(O)c1ccccc1
786-0
  GI50: > 100 µM (inactive)
A498
  GI50: > 100 µM (inactive)
A549
  GI50: > 100 µM (inactive)
ACHN
  GI50: > 100 µM (inactive)
CAKI-1
  GI50: > 100 µM (inactive)
COLO 205
  GI50: > 100 µM (inactive)
DU-145
  GI50: > 100 µM (inactive)
EKVX
  GI50: > 100 µM (inactive)
HCC 2998
  GI50: > 100 µM (inactive)
HCT-116
  GI50: > 100 µM (inactive)
HCT-15
  GI50: > 100 µM
HL-60
  GI50: > 100 µM (inactive)
HOP-62
  GI50: > 100 µM (inactive)
HOP-92
  GI50: > 100 µM (inactive)
HT-29
  GI50: > 100 µM (inactive)
Hs-578T
  GI50: > 100 µM (inactive)
IGROV-1
  GI50: > 100 µM (inactive)
K562
  GI50: > 100 µM (inactive)
KM12
  GI50: > 100 µM (inactive)
LOX IMVI
  GI50: > 100 µM (inactive)
M14
  GI50: > 100 µM (inactive)
MCF7
  GI50: > 100 µM (inactive)
MDA-MB-435
  GI50: > 100 µM (inactive)
MDA-N
  GI50: > 100 µM (inactive)
Malme-3M
  GI50: > 100 µM (inactive)
NCI-H226
  GI50: > 100 µM (inactive)
NCI-H23
  GI50: > 100 µM (inactive)
NCI-H460
  GI50: > 100 µM (inactive)
NCI-H522
  GI50: > 100 µM (inactive)
NCI/ADR-RES
  GI50: > 100 µM (inactive)
OVCAR-3
  GI50: > 100 µM (inactive)
OVCAR-4
  GI50: > 100 µM (inactive)
OVCAR-5
  GI50: > 100 µM (inactive)
OVCAR-8
  GI50: > 100 µM (inactive)
PC-3
  GI50: > 100 µM (inactive)
SF-268
  GI50: > 100 µM (inactive)
SF-295
  GI50: > 100 µM (inactive)
SF-539
  GI50: > 100 µM (inactive)
SK-MEL-28
  GI50: > 100 µM (inactive)
SK-MEL-2
  GI50: > 100 µM (inactive)
SK-MEL-5
  GI50: > 100 µM (inactive)
SK-OV-3
  GI50: > 100 µM (inactive)
SN12C
  GI50: > 100 µM (inactive)
SNB-19
  GI50: > 100 µM (inactive)
SNB-75
  GI50: > 100 µM (inactive)
SR
  GI50: > 100 µM (inactive)
SW-620
  GI50: > 100 µM (inactive)
T47D
  GI50: > 100 µM (inactive)
TK-10
  GI50: > 100 µM (inactive)
U-251
  GI50: > 100 µM (inactive)
UACC-257
  GI50: > 100 µM (inactive)
UACC-62
  GI50: > 100 µM (inactive)
